Data taken from ChEMBL document CHEMBL3272260, “Metabolic and photochemical hydroxylation of 5-nitro-2-furancarboxaldehyde derivatives” (J Med Chem, 1976).
Values belong to the molecule of their own block, whether it stands above or below them.

Key:
[1] = Half life of the compound under atmospheric pressure condition; assay type: physicochemical
[2] = Half life of the compound under in-vacuo condition; assay type: physicochemical
[3] = Chemical stability of the compound; assay type: physicochemical
[4] = Drug metabolism in rat urine treated with nitrofurantoin at 100 mg/kg, po measured up to 6 hrs by UV-spectroscopic analysis; assay type: ADME, organism-based; set-up: dose 100 mg/kg, route oral; conditions: in vivo
[5] = Drug metabolism in rat urine treated with nitrofurantoin at 100 mg/kg, po measured up to 6 hrs by IR-spectroscopic analysis; assay type: ADME, organism-based; set-up: dose 100 mg/kg, route oral; conditions: in vivo
[6] = Drug metabolism in rat urine treated with nitrofurantoin at 100 mg/kg, po measured up to 6 hrs by NMR-spectroscopic analysis; assay type: ADME, organism-based; set-up: dose 100 mg/kg, route oral; conditions: in vivo
[7] = Dissociation constant, pKa of the compound by potentiometric titration analysis; assay type: physicochemical
[8] = Half life of the compound in 0.1% aqueous solution; assay type: physicochemical

half-life [1]: 120 h
half-life [2]: > 624 h
SMILES: O.O=C1OCCN1/N=C/c1cc(O)c([N+](=O)[O-])o1

Stability [3]: Stable
SMILES: O=C1C=C(/C=N/N2CCOC2=O)OC1=[N+]([O-])[O-].[K+]

Drug metabolism [4]: metabolite_detected
Drug metabolism [5]: metabolite_detected
Drug metabolism [6]: metabolite_detected
Stability [3]: Stable
SMILES: O.O=C1CN(/N=C/C2=CC(=O)C(=[N+]([O-])[O-])O2)C(=O)N1.[K+]

pKa [7]: 2.7
half-life at 0.1 % [8]: 48 h
SMILES: O.O.O=C1OCCN1/N=C/c1cc(O)c([N+](=O)[O-])o1
